Data taken from patent US7511123B2, “Immuno-interactive fragments of the alpha-C subunit of inhibin” (Prince Henry's Institute of Medical Research, priority 1999, dated 2009).

B1: rh-activin A: recombinant human activin A (protein, UniProt P08476 311-426, looked up)
Inhibin beta A chain: GLECDGKVNICCKKQFFVSFKDIGWNDWIIAPSGYHANYCEGECPSHIAGTSGSSLSFHSTVINHYRMRGHSPFANLKSCCVPTKLRPMSMLYYDDGQNIIKKDIQNMIVEECGCS
B2: Pro-(alpha)C: preparation provided as standard in Pro-(alpha)C ELISA by Oxford Bio-innovations Ltd, UK (protein)
chain: CQGLELARELVLAKVRALFLDALGPPAVTREGGDPGVRRLPRRHALGGFTHRGSEPEEEEDVSQAILFPATDASCEDKSAARGLAQEAEEGLFRYMFRPSQHTRSRQVTSAQLWFHTGLDRQGTAASNSSEPLLGLLALSPGGPVAVPMSLGHAPPHWAVLHLATSALSLLTHPVLVLLLRCPLCTCSARPEATPFLVAHTRTRPPSGGERARRSTPLMSWPWSPSALRLLQRPPEEPAAHANCHRVALNISFQELGWERWIVYPPSFIFHYCHGGCGLHIPPNLSLPVPGAPPTPAQPYSLLPGAQPCCAALPGTMRPLHVRTTSDGGYSFKYETVPNLLTQHCACI
B3: rh-inhibin B: recombinant human inhibin B (protein, UniProt P05111 233-366; P09529 293-407, looked up)
Inhibin alpha chain: STPLMSWPWSPSALRLLQRPPEEPAAHANCHRVALNISFQELGWERWIVYPPSFIFHYCHGGCGLHIPPNLSLPVPGAPPTPAQPYSLLPGAQPCCAALPGTMRPLHVRTTSDGGYSFKYETVPNLLTQHCACI
Inhibin beta B chain: GLECDGRTNLCCRQQFFIDFRLIGWNDWIIAPTGYYGNYCEGSCPAYLAGVPGSASSFHTAVVNQYRMRGLNPGTVNSCCIPTKLSTMSMLYFDDEYNIVKRDVPNMIVEECGCA

What was measured:
As #1989 = test: RIA (Assay 2): competition with iodinated inhibin for As #1989; assay type: binding, rabbit; conditions: for As#1989 ED50: biotinylated peptides, 50% fall in binding of iodinated inhibin
Text: (§1) This assay was used to determine which peptides compete with iodinated 30 kDa inhibin for As #41, #128 and #1989 (used in the original inhibin RIA, Lapphorn et al., 1989, supra) in a RIA format. This assay identifies those peptides that bind to inhibin-binding antibodies in the antiserum and provides a stricter affinity and specificity assessment in identifying the appropriate epitopes than that found with Assay 1. The competition between peptide and hr-inhibin (used as the standard) was assessed from their ED50 values. The RIA consisted of the competition of iodinated inhibin and either hr-inhibin reference preparation, individual peptides or pools from the 4 peptide regions, with As #41, #128 and in some instances, As #1989. The peptides/inhibin/iodinated inhibin and antisera (at a prescribed dilution) were incubated overnight at 4° C. using standard methodologies. The antibody-bound iodinated inhibin was immunoprecipitated with the addition of an anti-sheep IgG serum raised in goats and the radioactivity was measured in a gamma counter. The concentration of peptide that gives a 50% fall in binding of iodinated inhibin (ED50) was determined and this value was used to give a measure of the affinity of the peptide for the antiserum. This methodology consisted of determining the ED50 of the peptide in the RIA using iodinated human recombinant inhibin as tracer with either As #41, As #128 or As #1989 and graded doses of either hr-inhibin or peptide as described in Example 2.

As #128 [1] = test: RIA (Assay 2): competition with iodinated inhibin for As #128; assay type: binding, sheep; conditions: for As#128 ED50: biotinylated peptides, 50% fall in binding of iodinated inhibin
Text: as §1

As #41 = test: RIA (Assay 2): competition with iodinated inhibin for As #41; assay type: binding, sheep; conditions: for As#41 ED50: biotinylated peptides, 50% fall in binding of iodinated inhibin
Text: as §1

As #128 [2] = test: Solid phase assay (Assay 1): biotinylated peptides binding to As #128; design: species or system sheep; key: +++++ major contribution; + minor contribution; conditions: relative contribution
Procedure: This assay is a broad screen of the binding of the 31 biotinylated peptides to As #41 and #128 as recommended by Chiron Mimotopes.
The biotinylated peptides were initially bound to streptavidin-coated 96-well plates (2 hours at room temperature), antiserum #41 or #128 was then added (2 hours room temperature) to bind to the peptides. Detection of antiserum binding was assessed by a further incubation with an anti-ovine IgG serum labeled with the enzyme, horseradish peroxidase. The enzyme activity was assessed by conversion of a colorless substrate to a colored product that is detected in a spectrophotometer. The enzyme activity measured was proportional to the extent of the binding of the peptides.

As #128 [3] = test: Competitive 2-site assay (Assay 3), approach (a); assay type: binding, sheep; design: key: +++++ major contribution; + minor contribution; conditions: relative contribution
Text: This assay was developed to establish the relative importance of the individual peptides and peptide pools (identified as epitopes in Assays 1 and 2) in the sandwich antibody format used in the IFMA with As #128 as capture antibody and As #41 as detection antibody. Two approaches (a and b) were considered, Approach (a) explores the cross-reaction of peptides with inhibin for the immobilized As #128 while Approach (b) assesses their cross-reaction with inhibin for As #41.
Approach (a). The biotinylated peptide pools and/or individual peptides at various concentrations, in combination with a fixed concentration of hr-inhibin, were incubated for 2 hours with As #128-coated plates. The plates were then washed to remove any unbound material. Iodinated As #41 was then added to bind to the bound hr-inhibin, the plates washed and the bound radioactivity was measured in a gamma counter. The counts measured were proportional to the amount of hr-inhibin bound to both antisera. The possibility that a peptide contained two epitopes capable of linking As #128 and #41 was assessed in the absence of added hr-inhibin.

PO#14-R1 = test: Cross-reaction of inhibin-related proteins in 14-R1 ELISA; assay type: binding, mouse; conditions: relative to rh inhibin A standard (=100); average of two experiments
Procedure: (§2) An ELISA system using 96-well microtiter plates was developed consisting of one alpha subunit antibody as coating antibody and an alkaline phosphatase-linked second antibody as label. The alkaline phosphatase activity was amplified using an ELISA amplification kit (Gibco, Life Technologies, Rockville Md., USA). The plate was initially coated with monoclonal antibody at 2 micrograms/well in 0.1 M bicarbonate buffer pH 9.4 overnight at room temperature and blocked with 50 mM TRIS/HCl, 1% bovine serum albumin (BSA) pH 7.4.
(§3) The ELISAs in application to non-serum samples consisted of 100 microliters sample or recombinant human (rh) inhibin A standard (provided by National Institute of Biological Standards and Control, Potters Bar, Herts, UK) in assay buffer (100 mM TRIS/HCl, 154 mM NaCl, 5% Triton-X-100, 10% BSA pH, 7.5) and 100 microliters assay buffer. In the assay of serum, the inhibin A standard (100 microliters) was diluted in assay buffer. Inhibin-free serum (100 microliters) was also added to make a total well volume of 200 microliters. The inhibin-free serum was obtained by incubating serum with an immobilized inhibin alpha subunit antibody. […] Serum samples were initially boiled in the presence of SDS (2% final concentration) and diluted 1:1 with assay buffer before adding 100 microliters to the wells. The inhibin-free serum and the SDS boiling steps were included to offset any potential matrix effects of serum known to affect other inhibin ELISAs although the need for these specific steps had not been assessed.
(§4) The plate was incubated with shaking overnight at room temperature. The wells were washed, and alkaline phosphatase (AP)-linked antibody added, incubated with shaking for 3 hours at room temperature and washed again. The substrate (NADPH, Gibco) was added and the plate incubated for 2 hours with shaking at room temperature. The amplifying enzymes (alcohol dehydrogenase and diaphorase, Gibco) were added and incubated for 5-15 min until appropriate color had developed. The plate was read at 490/630 nm on an ELISA plate reader.
(§5) The specificity of the ELISAs was assessed by determining the cross-reaction of inhibin-related proteins in the various ELISAs.

PO#23-R1 = test: Cross-reaction of inhibin-related proteins in 23-R1 ELISA; assay type: binding, mouse; conditions: relative to rh inhibin A standard (=100); average of two experiments
Procedure: as §2, §3, §4, §5

PO#14 + PO#23-R1 = test: Cross-reaction of inhibin-related proteins in 14 + 23-R1 ELISA; assay type: binding, mouse; conditions: relative to rh inhibin A standard (=100); average of two experiments
Procedure: as §2, §3, §4, §5
As a result of an initial characterization of these ELISAs (see below), a combination of PO#14+PO#23 as coating antibodies and AP linked-R1 antibody as tracer was also assessed and its characteristics are also presented in Table 11 and 12 and FIG. 10c.

[4] = non-biotinylated peptides, hr-inhibin A as standard

Molecule	As#1989 ED50 (As #1989) [nM]	As#128 ED50 (As #128 [1]) [nM]	As#41 ED50 (As #41) [nM]	also measured
SGSG HYCHGGCGLHIPPN [Peptide 17]	>2500	10000	1050	
SGSG GGCGLHIPPNLSLP [Peptide 18]	>2500	60	1050	#128 Antibody screen Assay 1 (As #128 [2]): +; #128 2-site competitive assay Assay 3 (As #128 [3]): +
SGSG PEEPAAHANCHRVA [Peptide 8]	>2500	4800	>10000	
SGSG ERWIVYPPSFIFHY [Peptide 14]	>2500	>10000	>10000	
SGSG VYPPSFIFHYCHGG [Peptide 15]	>2500	>10000	>10000	
SGSG AAHANCHRVALNIS [Peptide 9]	>2500	>10000	>10000	
SGSG NCHRVALNISFQEL [Peptide 10]	>2500	>10000	>10000	
SGSG ISFQELGWERWIVY [Peptide 12]	>2500	>10000	>10000	
SGSG PLHVRTTSDGGYSF [Peptide 29]	>2500	156	5000	
SGSG LHIPPNLSLPVPGA [Peptide 19]	>2500	<10	2100	#128 Antibody screen Assay 1 (As #128 [2]): +; #128 2-site competitive assay Assay 3 (As #128 [3]): +
SGSG SFKYETVPNLLTQH [Peptide 32]	>2500	2500	290	
SGSG VALNISFQELGWER [Peptide 11]	>2500	>10000	>10000	
SGSG SFIFHYCHGGCGLH [Peptide 16]	>2500	>10000	>10000	
SGSG LPVPGAPPTPAQPY [Peptide 21]	>2500	156	1000	
Hr-inhibin: human recombinant 30 kDa inhibin A [reference compound]				ED50 values As#1989 (As #1989; [4]): 0.1 nM; ED50 values As#128 (As #128 [1]; [4]): 2 nM; ED50 values As#41 (As #41; [4]): 2 to 8000 nM
SGSG ELGWERWIVYPPSF [Peptide 13]	>2500	>10000	>10000	
SGSG LQRPPEEPAAHANC [Peptide 7]	>2500	1600	1250	#128 Antibody screen Assay 1 (As #128 [2]): +; #128 2-site competitive assay Assay 3 (As #128 [3]): +
B1				14-R1 ELISA specificity (PO#14-R1): <0.2; 23-R1 ELSIA specificity (PO#23-R1): <0.2; 14 + 23-R1 ELISA specificity (PO#14 + PO#23-R1): <0.2
B2				14-R1 ELISA specificity (PO#14-R1): 98.5; 23-R1 ELSIA specificity (PO#23-R1): 41.5; 14 + 23-R1 ELISA specificity (PO#14 + PO#23-R1): 38.5
B3				14-R1 ELISA specificity (PO#14-R1): 320; 23-R1 ELSIA specificity (PO#23-R1): 253; 14 + 23-R1 ELISA specificity (PO#14 + PO#23-R1): 138
